Experimental findings from the NIST ThermoML archive (doi:10.1016/j.jct.2014.02.003) are described below.

A short description of the data set: molar enthalpy of vaporization or sublimation. Particulars: Crystal, Knudsen effusion method coupled with mass spectrometer, from logarithm of peak intensity.

± gives the expanded uncertainty stated by the source.

Take `N[C@@H](Cc1c[nH]c2ccccc12)C(=O)O` [L-tryptophan]: the molar enthalpy (450.15 K) is 44.1 ± 0.55 kcal/mol.
As to `O=C(O)c1ccccc1` [benzoic acid], the molar enthalpy (308.21 K) was 21.7 ± 0.454 kcal/mol.
`N[C@@H](Cc1ccc(O)cc1)C(=O)O` [3-(p-hydroxyphenyl)-L-alanine]: under “471.15 K”, the molar enthalpy was 47.8 ± 0.43 kcal/mol.
Turning to `N[C@@H](Cc1ccccc1)C(=O)O` [L-phenylalanine], the molar enthalpy (418.15 K) was found to be 37.8 ± 0.478 kcal/mol.
